Experimental data reported in ChEMBL document CHEMBL1201862, “PubChem BioAssay data set” (2004).
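These data come from cells grown in 96-well plates and exposed to compound for 48 hours at five concentrations. The concentration for 50% growth inhibition is given as GI50.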 Calls of active or inactive are those of the source. No stated cut-off is given here; in the data, active = GI50 up to about 1.1 µM and inactive = higher.

What was measured:
Experiment in all cases: NCI anticancer screen, dose series, 48 h
SNB-78 = tested on: SNB-78
DMS-114 = tested on: DMS-114
XF498 = tested on: XF498
M19-MEL = tested on: M19-MEL
HOP-18 = tested on: HOP-18
LXFL 529 = tested on: LXFL 529
DMS-273 = tested on: DMS-273
KM-20L2 = tested on: KM-20L2
RXF 631 = tested on: RXF 631

Measured: GI50

CC1=CC(=O)NP(=O)(Oc2ccc(Cl)cc2)N1 (stereo not given)
inactive: SNB-78 > 100 µM | DMS-114 > 100 µM | XF498 > 100 µM | M19-MEL > 100 µM | HOP-18 > 100 µM | LXFL 529 > 100 µM | DMS-273 > 100 µM | KM-20L2 > 100 µM

Cc1ccc(S(=O)(=O)N[C@H](C(=O)O)c2ccccc2)cc1
inactive: XF498 > 100 µM | M19-MEL > 100 µM | RXF 631 > 100 µM | HOP-18 > 100 µM | LXFL 529 > 100 µM | DMS-273 > 100 µM | KM-20L2 > 100 µM

C/C(=N\N(c1ccccc1)c1ccccc1)c1c(O)cc(C)oc1=O
inactive: SNB-78 > 100 µM | M19-MEL 81.7 µM | HOP-18 > 100 µM | LXFL 529 78.5 µM | KM-20L2 > 100 µM

CC1=C(/C(C)=N/NS(=O)(=O)c2ccc(C)cc2)Sc2ccccc2N1
inactive: SNB-78 > 100 µM | DMS-114 43.4 µM | M19-MEL 43.7 µM | RXF 631 > 100 µM | HOP-18 72.1 µM | LXFL 529 79.6 µM | DMS-273 78.3 µM | KM-20L2 > 100 µM

O=[N+]([O-])c1cccc(C2SCc3nc4ccccc4n32)c1 (stereo not given)
inactive: SNB-78 > 100 µM | DMS-114 53.5 µM | XF498 > 10 µM | M19-MEL > 100 µM | HOP-18 > 100 µM | LXFL 529 55.8 µM | DMS-273 85.7 µM | KM-20L2 > 100 µM

CC1=C(C(=O)NCc2ccccc2)C(c2ccc([N+](=O)[O-])cc2)C(C(=O)NCc2ccccc2)=C(C)N1
inactive: SNB-78 78.7 µM | DMS-114 30.2 µM | XF498 59 µM | M19-MEL 21.3 µM | HOP-18 > 100 µM | LXFL 529 36.7 µM | DMS-273 40.6 µM | KM-20L2 22 µM

CCOC(=O)CCC(NC(=O)c1ccc(NC(OC)c2nc3cc(C(F)(F)F)ccc3nc2-c2ccccc2)cc1)C(=O)OCC (stereo not given)
inactive: SNB-78 19.1 µM | DMS-114 12.7 µM | M19-MEL 14.7 µM | RXF 631 13.7 µM | HOP-18 18.5 µM | LXFL 529 7.6 µM | DMS-273 7.36 µM | KM-20L2 13.6 µM

O=C1C(c2ccccc2)=C(c2ccccc2)[C@H](c2ccccc2)[C@]1(Cc1nnn(-c2ccc([N+](=O)[O-])cc2)c1N1CCOCC1)c1ccccc1
inactive: SNB-78 > 37.5 µM | DMS-114 > 37.5 µM | XF498 8.3 µM | M19-MEL > 37.5 µM | RXF 631 > 37.5 µM | HOP-18 > 37.5 µM | LXFL 529 24.4 µM | DMS-273 24.9 µM | KM-20L2 > 37.5 µM

N#CC1C2CCC3(CC2CCN1C(=O)c1ccccc1)OCCO3 (stereo not given)
inactive: SNB-78 > 100 µM | DMS-114 > 100 µM | XF498 > 100 µM | M19-MEL > 100 µM | HOP-18 > 100 µM | LXFL 529 > 100 µM | DMS-273 > 100 µM | KM-20L2 > 100 µM

CC(C)Cc1ccc(C(C)/C=C2\CCC(CN3CCCCC3)C2=O)cc1 (stereo not given)
inactive: SNB-78 5.74 µM | DMS-114 2.22 µM | XF498 6.78 µM | M19-MEL 2.54 µM | HOP-18 16.6 µM | LXFL 529 1.91 µM | DMS-273 2.86 µM | KM-20L2 10.4 µM

Cc1cc(C(=O)NCCN(C)C)c2nc3ccccc3nc2c1
inactive: SNB-78 12.8 µM | DMS-114 3.19 µM | M19-MEL 3.13 µM | HOP-18 > 35.1 µM | LXFL 529 8.3 µM | DMS-273 3.87 µM | KM-20L2 3.1 µM

N#CC(NNC(=O)Cc1ccccc1)c1ccc([N+](=O)[O-])cc1 (stereo not given)
inactive: SNB-78 > 100 µM | M19-MEL > 100 µM | HOP-18 82.8 µM | LXFL 529 > 100 µM | DMS-273 > 100 µM

CCCCCCCCCCCC(=O)OCC1OC(n2cc(F)c(=O)[nH]c2=O)C(NC(=O)OCc2ccccc2)C(O)C1O (stereo not given)
inactive: SNB-78 28.9 µM | M19-MEL 20 µM | LXFL 529 18.6 µM | DMS-273 19 µM | KM-20L2 21.4 µM

Cc1cccc(C(=O)O)c1C(=O)c1cccc2ccccc12
inactive: SNB-78 > 100 µM | DMS-114 > 100 µM | M19-MEL > 100 µM | HOP-18 > 100 µM | LXFL 529 > 100 µM | DMS-273 > 100 µM | KM-20L2 33.5 µM

CC(C)C(/C=C/c1ccccc1)=N\NC(=O)N/N=C(/C=C/c1ccccc1)C(C)C
inactive: SNB-78 28.1 µM | DMS-114 13 µM | XF498 26.4 µM | M19-MEL 21 µM | LXFL 529 23.2 µM | DMS-273 19.8 µM | KM-20L2 22.5 µM

CSc1nc(NC2OC(COC(C)=O)C(OC(C)=O)C(OC(C)=O)C2OC(C)=O)c(/N=C\C=N/c2c(NC3OC(COC(C)=O)C(OC(C)=O)C(OC(C)=O)C3OC(C)=O)nc(SC)n(C)c2=O)c(=O)n1C (stereo not given)
inactive: SNB-78 31.7 µM | DMS-114 > 100 µM | XF498 15.6 µM | M19-MEL > 100 µM | RXF 631 51.8 µM | HOP-18 > 67.1 µM | LXFL 529 > 100 µM | DMS-273 > 100 µM | KM-20L2 > 100 µM

CCOC(=O)C1=C(OC(OCC)C(CC)[Se]c2ccccc2)CCC1 (stereo not given)
inactive: SNB-78 24.5 µM | DMS-114 4.62 µM | XF498 23.1 µM | M19-MEL 14.4 µM | RXF 631 10.3 µM | HOP-18 23.1 µM | LXFL 529 18.7 µM | DMS-273 13.2 µM | KM-20L2 29.8 µM

O=C(CN(Cc1ccccc1)Cc1ccccc1)N1CCc2c([nH]c3ccccc23)C1c1cccnc1 (stereo not given)
inactive: SNB-78 15.8 µM | DMS-114 4.35 µM | XF498 13.9 µM | M19-MEL 5.98 µM | HOP-18 46.5 µM | LXFL 529 6.67 µM | DMS-273 4.74 µM | KM-20L2 6.92 µM

Cc1cccc(CC(C)(C)C)c1NC(=O)C(=O)C(C(=O)c1ccc2ccccc2c1)C1OC(=O)c2ccccc21 (stereo not given)
inactive: SNB-78 11.5 µM | DMS-114 10.4 µM | M19-MEL 14.6 µM | LXFL 529 7.01 µM

COc1cc2c(cc1OC)[C@]1(O)C(=O)c3ccc4c(c3O[C@@H]1CO2)C[C@H](C(C)(C)O)O4
inactive: SNB-78 > 100 µM | DMS-114 3.61 µM | XF498 > 100 µM | M19-MEL > 100 µM | LXFL 529 56.1 µM | DMS-273 > 100 µM | KM-20L2 > 100 µM
